Results as given in PubChem BioAssay AID1845207 (Molecular Pharmacology Branch, DTP, NCI, 2023).

System: NCI-H1876 tumor spheroid viability
Assay: Anticancer human tumor NCI-H1876 cell line growth inhibition;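 also: spheroids exposed to compounds for seven days before the viability read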;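 as to viability, T/C: percent of DMSO vehicle control viability so 100% = vehicle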
Details: spheroids with HUVEC and MSC; for IC50: curve of first compound; for viability, T/C: stronger effect = lower value
Description: Multicellular complex tumor spheroid response to DNA repair inhibitors in combination with DNA-damaging drugs
This study explores the anticancer activities of DNA-damaging drugs and inhibitors of DNA damage repair, both as single agents and in combinations. Complex tumor spheroids comprised of malignant cells, endothelial cells and mesenchymal stem cells served as an in vitro model for human solid tumors. This model system incorporates physiologically relevant features and patient-derived or established malignant cell lines with clinically relevant genetic alterations from many tumor types. Twenty-six patient-derived or established malignant cell lines were evaluated representing sarcoma, melanoma, small cell lung cancer (SCLC), non-small cell lung cancer (NSCLC), as well as bladder, ovarian and pancreatic cancers. The concentration ranges selected for each drug and investigational agent were based upon clinically achievable concentrations if the clinical Cmax of the agent was known.
Compounds. The drugs and compounds olaparib (NSC753686), talazoparib (NSC767125), berzosertib (NSC777718), elimusertib (NSC800525), nedisertib (NSC802822), VX-984 (NSC792969), AZD-1390 (NSC803789), temozolomide (NSC362856), topotecan (NSC609699), trabectedin (NSC813783), staurosporine (NSC755774), and gemcitabine (NSC613327) were obtained from the National Cancer Institute (NCI) Developmental Therapeutics Program Chemical Repository. The FDA-approved anticancer drug set is available from the Developmental Therapeutics Program at https://dtp.cancer.gov/organization/dscb/obtaining/available_plates.htm. […] The stock solutions were prepared in dimethyl sulfoxide (DMSO, Sigma-Aldrich, St. Louis, MO, cat. D2650) at 400-fold the tested concentration and stored at -70 degrees C. Prior to their use, the stock solutions were diluted in fresh medium and the final DMSO concentration in the assay was 0.25% (v/v). All drugs and investigational agents were tested over a range starting from a high concentration at or near the clinical Cmax and decreasing in half-log increments. If the clinical Cmax for an agent had not been determined, the highest concentration tested was 10 microM.
Cell Lines. The patient-derived cancer cell (PDC) lines: 156681-154-R-J1-PDC, 283228-195-R-J1-PDC, 287954-098-R-J1-PDC, 292921-168-R-J2-PDC, 349418-098-R-PDC, 425362-245-T-J1-PDC, 556581-035-R-J1-PDC, and BL0293-F563-PDC were received from the NCI Patient-Derived Models Repository (PDMR, https://pdmr.cancer.gov). The established cell lines HS-SY-2 (RRID:CVCL_8719), MPNST, and SYO-1 (RRID:CVCL_7146) were obtained from the Sloan Kettering Institute. The alveolar soft parts sarcoma cell line ASPS-1 (RRID:CVCL_S738) was established at the NCI and grown from internal seed stocks. The following established cell lines were purchased from the American Type Culture Collection (ATCC, Manassas, VA): G-401 (ATCC, cat. CRL-1441, RRID:CVCL_0270), SW982 (ATCC, cat. HTB-93, RRID:CVCL_1734), VA-ES-BJ (ATCC, cat. CRL-2138, RRID:CVCL_1785), NCI-H719 (ATCC, cat. CRL-5837, RRID:CVCL_1582), NCI-H196 (ATCC, cat. CRL-5823, RRID:CVCL_1509), NCI-H841 (ATCC, cat. CRL-5845, RRID:CVCL_1595), NCI-H1618 (ATCC, cat. CRL-5879, RRID:CVCL_1480), NCI-H1876 (ATCC, cat. CRL-5902, RRID:CVCL_1503), DMS 114 (ATCC, cat. CRL-2066; RRID:CVCL_1174), NCI-H211 (ATCC, cat. CRL-5824; RRID:CVCL_1529), and SW 1271 (ATCC, cat. CRL-2177, RRID:CVCL_1716). The small cell lung cancer cell line COR-L88 was purchased from Sigma-Aldrich (cat. 92031917-1VL, RRID:CVCL_1141). The non-small cell lung cancer cell lines NCI-H226 (RRID:CVCL_1544) and NCI-H322M (RRID:CVCL_1557) were established at the NCI and grown from internal seed stocks. Pooled donor human umbilical vein endothelial cells (HUVEC, Lonza, cat. CC-2519) and human mesenchymal stem cells (hMSC, Lonza, cat. PT-2501) were purchased from Lonza (Walkersville, MD).
Cell Culture. All cells were maintained in an incubator at 37 degrees C and 5% CO2 with 95% humidity. […]

SMILES: Cc1cc(C)c(CNC(=O)c2cc(-c3ccc(CN4CCOCC4)cc3)cc3c2cnn3C2CCCC2)c(=O)[nH]1 + CC[C@@]1(O)C(=O)OCc2c1cc1n(c2=O)Cc2cc3c(CN(C)C)c(O)ccc3nc2-1
- IC50 (second compound 0.003 µM): 509 nM
- IC50 (second compound 0.00949 µM): < 31.6 nM
- IC50 (second compound 0.03 µM): < 31.6 nM
- IC50 (second compound 0.0949 µM): < 31.6 nM
- IC50 (second compound 0.3 µM): < 31.6 nM
- viability, T/C (second compound 0.003 µM, first compound 0.0316 µM): 78.6%
- viability, T/C (second compound 0.003 µM, first compound 0.1 µM): 70%
- viability, T/C (second compound 0.003 µM, first compound 0.316 µM): 56.6%
- viability, T/C (second compound 0.003 µM, first compound 1 µM): 39%
- viability, T/C (second compound 0.003 µM, first compound 3.16 µM): 27.7%
- viability, T/C (second compound 0.003 µM, first compound 10 µM): 10.5%
- viability, T/C (second compound 0.00949 µM, first compound 0.0316 µM): 40.9%
- viability, T/C (second compound 0.00949 µM, first compound 0.1 µM): 39.6%
- viability, T/C (second compound 0.00949 µM, first compound 0.316 µM): 35.1%
- viability, T/C (second compound 0.00949 µM, first compound 1 µM): 26.2%
- viability, T/C (second compound 0.00949 µM, first compound 3.16 µM): 22%
- viability, T/C (second compound 0.00949 µM, first compound 10 µM): 10.5%
- viability, T/C (second compound 0.03 µM, first compound 0.0316 µM): 15.6%
- viability, T/C (second compound 0.03 µM, first compound 0.1 µM): 15.2%
- viability, T/C (second compound 0.03 µM, first compound 0.316 µM): 17.6%
- viability, T/C (second compound 0.03 µM, first compound 1 µM): 17.8%
- viability, T/C (second compound 0.03 µM, first compound 3.16 µM): 16.5%
- viability, T/C (second compound 0.03 µM, first compound 10 µM): 9.6%
- viability, T/C (second compound 0.0949 µM, first compound 0.0316 µM): 8.57%
- viability, T/C (second compound 0.0949 µM, first compound 0.1 µM): 9.17%
- viability, T/C (second compound 0.0949 µM, first compound 0.316 µM): 10.2%
- viability, T/C (second compound 0.0949 µM, first compound 1 µM): 12.2%
- viability, T/C (second compound 0.0949 µM, first compound 3.16 µM): 12%
- viability, T/C (second compound 0.0949 µM, first compound 10 µM): 11.9%
- viability, T/C (second compound 0.3 µM, first compound 0.0316 µM): 3.79%
- viability, T/C (second compound 0.3 µM, first compound 0.1 µM): 4.57%
- viability, T/C (second compound 0.3 µM, first compound 0.316 µM): 4.59%
- viability, T/C (second compound 0.3 µM, first compound 1 µM): 6.24%
- viability, T/C (second compound 0.3 µM, first compound 3.16 µM): 7.93%
- viability, T/C (second compound 0.3 µM, first compound 10 µM): 7.45%

SMILES: Cc1sc2c(c1C)C(c1ccc(Cl)cc1)=NC(CC(=O)Nc1ccc(O)cc1)c1nnc(C)n1-2 (stereo not given) + CC[C@@]1(O)C(=O)OCc2c1cc1n(c2=O)Cc2cc3c(CN(C)C)c(O)ccc3nc2-1
- IC50 (second compound 0.003 µM): 31.8 nM
- IC50 (second compound 0.00949 µM): < 9.49 nM
- IC50 (second compound 0.03 µM): < 9.49 nM
- IC50 (second compound 0.0949 µM): < 9.49 nM
- IC50 (second compound 0.3 µM): < 9.49 nM
- viability, T/C (second compound 0.003 µM, first compound 0.00949 µM): 70.7%
- viability, T/C (second compound 0.003 µM, first compound 0.03 µM): 52.3%
- viability, T/C (second compound 0.003 µM, first compound 0.0949 µM): 25.6%
- viability, T/C (second compound 0.003 µM, first compound 0.3 µM): 15.8%
- viability, T/C (second compound 0.003 µM, first compound 0.949 µM): 8.93%
- viability, T/C (second compound 0.003 µM, first compound 3 µM): 5.64%
- viability, T/C (second compound 0.00949 µM, first compound 0.00949 µM): 30.6%
- viability, T/C (second compound 0.00949 µM, first compound 0.03 µM): 46.8%
- viability, T/C (second compound 0.00949 µM, first compound 0.0949 µM): 16.6%
- viability, T/C (second compound 0.00949 µM, first compound 0.3 µM): 12.2%
- viability, T/C (second compound 0.00949 µM, first compound 0.949 µM): 7.36%
- viability, T/C (second compound 0.00949 µM, first compound 3 µM): 5.57%
- viability, T/C (second compound 0.03 µM, first compound 0.00949 µM): 12.2%
- viability, T/C (second compound 0.03 µM, first compound 0.03 µM): 30%
- viability, T/C (second compound 0.03 µM, first compound 0.0949 µM): 12.2%
- viability, T/C (second compound 0.03 µM, first compound 0.3 µM): 10.8%
- viability, T/C (second compound 0.03 µM, first compound 0.949 µM): 5.27%
- viability, T/C (second compound 0.03 µM, first compound 3 µM): 4.32%
- viability, T/C (second compound 0.0949 µM, first compound 0.00949 µM): 7.77%
- viability, T/C (second compound 0.0949 µM, first compound 0.03 µM): 8.11%
- viability, T/C (second compound 0.0949 µM, first compound 0.0949 µM): 8.71%
- viability, T/C (second compound 0.0949 µM, first compound 0.3 µM): 7.87%
- viability, T/C (second compound 0.0949 µM, first compound 0.949 µM): 5.5%
- viability, T/C (second compound 0.0949 µM, first compound 3 µM): 4%
- viability, T/C (second compound 0.3 µM, first compound 0.00949 µM): 3.46%
- viability, T/C (second compound 0.3 µM, first compound 0.03 µM): 3.69%
- viability, T/C (second compound 0.3 µM, first compound 0.0949 µM): 3.67%
- viability, T/C (second compound 0.3 µM, first compound 0.3 µM): 3.02%
- viability, T/C (second compound 0.3 µM, first compound 0.949 µM): 2.65%
- viability, T/C (second compound 0.3 µM, first compound 3 µM): 1.56%
